Results as given in ChEMBL document CHEMBL6153032, “Discovery of a highly potent, N-terminal domain-targeting degrader of AR-FL/AR-V7 for the treatment of prostate cancer” (Eur J Med Chem, 2025).
Active and inactive are the calls of the source. No cut-off for these calls is given here.

What was measured:
[1] = tested on: Protein cereblon/Androgen receptor (Homo sapiens), P10275+Q96SW2 [UNDEFINED MUTATION]; assay: PROTAC activity at AR-V7/CRBN in human 22Rv1 cells assessed as induction of AR-V7 degradation at 1 uM incubated for 24 hrs by Western blot analysis relative to control; format: cell-based; conditions: CWR22R
CWR22R [2] = assay: Antiproliferative activity against human 22Rv1 cells incubated for 4 days by CCK-8 assay; format: functional, cell-based; conditions: 22Rv1, 96 h
[3] = molecular target: T1, Protein cereblon/Androgen receptor (Homo sapiens, UniProt P10275+Q96SW2); assay: PROTAC activity at full length Androgen receptor/CRBN in human 22Rv1 cells assessed as induction of full length Androgen receptor degradation at 1 uM incubated for 24 hrs by Western blot analysis relative to control; format: cell-based
[4] = molecular target: T1, Protein cereblon/Androgen receptor; assay: PROTAC activity at full length Androgen receptor/CRBN in human 22Rv1 cells assessed as induction of full length Androgen receptor degradation at 5 uM incubated for 24 hrs by Western blot analysis relative to control; format: cell-based
[5] = tested on: Protein cereblon/Androgen receptor (Homo sapiens), P10275+Q96SW2 [UNDEFINED MUTATION]; assay: PROTAC activity at AR-V7/CRBN in human 22Rv1 cells assessed as induction of AR-V7 degradation at 5 uM incubated for 24 hrs by Western blot analysis relative to control; format: cell-based; conditions: CWR22R
CWR22R [6] = assay: Inhibition of colony formation in human 22Rv1 cells assessed as reduction in colony formation incubated for 14 days; format: functional, cell-based; conditions: dose 1-100 nM, time 14.0 day
CWR22R [7] = assay: Induction of apoptosis in human 22Rv1 cells assessed as viable cells at 100 nM incubated for 48 hrs by Annexin V/FITC staining based flow cytometry analysis (reference value: 94.49%); format: functional; conditions: read-out: Activity
CWR22R [8] = assay: Induction of apoptosis in human 22Rv1 cells assessed as early apoptotic cells at 100 nM incubated for 48 hrs by Annexin V/FITC staining based flow cytometry analysis (reference value: 2.08 %); format: functional
CWR22R [9] = assay: Induction of apoptosis in human 22Rv1 cells assessed as late apoptotic cells at 100 nM incubated for 48 hrs by Annexin V/FITC staining based flow cytometry analysis (reference value: 1.12 %); format: functional
CWR22R [10] = assay: Induction of apoptosis in human 22Rv1 cells assessed as necrotic cells at 100 nM incubated for 48 hrs by Annexin V/FITC staining based flow cytometry analysis (reference value: 2.31 %); format: functional
CWR22R [11] = assay: Induction of cell cycle arrest in human 22Rv1 cells assessed as accumulation of cells at G0/G1 phase at 100 nM incubated for 24 hrs by PI staining based flow cytometry analysis (reference value: 62.66%); format: functional
CWR22R [12] = assay: Induction of cell cycle arrest in human 22Rv1 cells assessed as accumulation of cells at S phase at 100 nM incubated for 24 hrs by PI staining based flow cytometry analysis (reference value: 28.73%); format: functional
CWR22R [13] = assay: Induction of cell cycle arrest in human 22Rv1 cells assessed as accumulation of cells at G2/M phase at 100 nM incubated for 24 hrs by PI staining based flow cytometry analysis (reference value: 8.61%); format: functional
[14] = tested on: Androgen receptor (Homo sapiens), P10275 [UNDEFINED MUTATION]; assay: Binding affinity to AR-V7 in human 22Rv1 cells assessed as thermal stabilization at 10 uM incubated for 24 hrs by CETSA analysis; format: cell-based
[15] = molecular target: T2, Androgen receptor (Homo sapiens) (UniProt P10275); assay: Binding affinity to Androgen receptor in human 22Rv1 cells assessed as thermal stabilization at 10 uM incubated for 24 hrs by CETSA analysis; format: cell-based
T2 sequence (whole entry): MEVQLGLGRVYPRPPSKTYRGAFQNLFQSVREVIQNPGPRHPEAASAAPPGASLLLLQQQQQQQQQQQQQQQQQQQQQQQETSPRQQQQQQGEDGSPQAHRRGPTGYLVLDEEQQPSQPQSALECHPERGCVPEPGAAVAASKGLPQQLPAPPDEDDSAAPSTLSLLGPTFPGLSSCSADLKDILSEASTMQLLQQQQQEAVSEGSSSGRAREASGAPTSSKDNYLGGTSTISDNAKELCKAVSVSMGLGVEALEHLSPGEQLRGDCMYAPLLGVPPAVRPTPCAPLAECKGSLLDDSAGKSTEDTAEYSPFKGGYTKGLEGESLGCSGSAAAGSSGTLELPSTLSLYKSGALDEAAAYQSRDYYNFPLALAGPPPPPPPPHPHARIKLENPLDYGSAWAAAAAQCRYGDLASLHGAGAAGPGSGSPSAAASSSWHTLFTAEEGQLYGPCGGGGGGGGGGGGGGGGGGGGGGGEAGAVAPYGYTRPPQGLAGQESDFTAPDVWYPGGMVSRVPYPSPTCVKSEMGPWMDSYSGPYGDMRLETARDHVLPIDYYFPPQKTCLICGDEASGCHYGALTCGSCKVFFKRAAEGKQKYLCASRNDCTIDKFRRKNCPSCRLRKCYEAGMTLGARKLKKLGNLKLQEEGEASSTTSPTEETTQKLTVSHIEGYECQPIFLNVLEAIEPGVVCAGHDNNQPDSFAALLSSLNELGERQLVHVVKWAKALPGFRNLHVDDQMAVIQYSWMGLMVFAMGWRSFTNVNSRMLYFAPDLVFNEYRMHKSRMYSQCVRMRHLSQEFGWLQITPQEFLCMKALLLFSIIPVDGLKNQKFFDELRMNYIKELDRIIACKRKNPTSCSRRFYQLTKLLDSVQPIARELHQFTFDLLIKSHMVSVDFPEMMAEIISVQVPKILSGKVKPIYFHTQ

[16] = tested on: Androgen receptor (Homo sapiens), P10275 [UNDEFINED MUTATION]; assay: Binding affinity to AR-V7 in human 22Rv1 cells at 10 uM incubated for 24 hrs by SPR analysis; format: cell-based
[17] = molecular target: T2, Androgen receptor (Homo sapiens); assay: Binding affinity to Androgen receptor in human 22Rv1 cells at 10 uM incubated for 24 hrs by SPR analysis; format: cell-based

Chain of Protein cereblon/Androgen receptor (Homo sapiens), P10275+Q96SW2 [UNDEFINED MUTATION] (Q96SW2 whole entry, looked up, stated change not applied, one chain of several): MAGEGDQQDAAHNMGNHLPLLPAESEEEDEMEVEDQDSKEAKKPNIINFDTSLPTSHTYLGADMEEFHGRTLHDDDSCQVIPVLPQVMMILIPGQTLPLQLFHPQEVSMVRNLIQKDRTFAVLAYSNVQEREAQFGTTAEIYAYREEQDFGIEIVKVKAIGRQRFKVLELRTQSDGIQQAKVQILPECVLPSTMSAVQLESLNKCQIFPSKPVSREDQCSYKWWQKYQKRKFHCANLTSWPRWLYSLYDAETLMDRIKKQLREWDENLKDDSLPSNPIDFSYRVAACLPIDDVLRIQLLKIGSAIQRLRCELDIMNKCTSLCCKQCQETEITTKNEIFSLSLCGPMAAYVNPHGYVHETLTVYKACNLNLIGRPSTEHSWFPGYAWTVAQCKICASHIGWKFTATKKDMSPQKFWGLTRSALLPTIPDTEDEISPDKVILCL
T1 sequence (Q96SW2 whole entry, looked up, one chain of several): as the sequence (Q96SW2 whole entry, looked up, stated change not applied, one chain of several) above

| Structure (SMILES) | Activity [1] | Activity [3] | Activity [4] | Activity [5] | IC50 (CWR22R [2]) | further results |
| --- | --- | --- | --- | --- | --- | --- |
| CC(C)(c1ccc(OCC(=O)NC2CN(c3cccc4c3C(=O)N(C3CCC(=O)NC3=O)C4=O)C2)cc1)c1ccc(OCC(O)CCl)cc1 (configuration not stated) | 67.7% | 80.1% | 89% | 88.2% | 1.17 µM |  |
| CC(C)(c1ccc(OCC(=O)NCCNc2ccc3c(c2)C(=O)N(C2CCC(=O)NC2=O)C3=O)cc1)c1ccc(OCC(O)CCl)cc1 (configuration not stated) | < 10% | < 10% | < 10% | < 10% | > 20 µM |  |
| CC(C)(c1ccc(OCCNc2cccc3c2C(=O)N(C2CCC(=O)NC2=O)C3=O)cc1)c1ccc(OCC(O)CCl)cc1 (configuration not stated) | 87.2% | 82.5% | < 10% | 87% | 7.77 µM |  |
| CC(C)(c1ccc(OCC(=O)N2CCC(N3CCN(c4ccc5c(c4)C(=O)N(C4CCC(=O)NC4=O)C5=O)CC3)CC2)cc1)c1ccc(OCC(O)CCl)cc1 (configuration not stated) | 33.2% | < 10% | < 10% | < 10% | > 20 µM |  |
| CC(C)(c1ccc(OCC(=O)NC2CCN(c3cccc4c3C(=O)N(C3CCC(=O)NC3=O)C4=O)CC2)cc1)c1ccc(OCc2cccc(N3CCOCC3)n2)cc1 (configuration not stated) | < 10% | < 10% | 28.3% | 48.7% | > 20 µM |  |
| CC(C)(c1ccc(OCC(=O)NCCCNc2cccc3c2C(=O)N(C2CCC(=O)NC2=O)C3=O)cc1)c1ccc(OCc2cccc(N3CCOCC3)n2)cc1 (configuration not stated) | < 10% | 22.1% | 78.6% | 55.5% | 7.44 µM |  |
| CC(C)(c1ccc(OCC(=O)NCCN2CCN(c3cccc4c3C(=O)N(C3CCC(=O)NC3=O)C4=O)CC2)cc1)c1ccc(OCc2cccc(N3CCOCC3)n2)cc1 (configuration not stated) | < 10% | < 10% | < 10% | < 10% | > 20 µM |  |
| CC(C)(c1ccc(OCc2cccc(N3CCOCC3)n2)cc1)c1ccc(OCC2CCN(c3cccc4c3C(=O)N(C3CCC(=O)NC3=O)C4=O)CC2)cc1 (configuration not stated) | < 10% | < 10% | < 10% | < 10% | > 20 µM |  |
| CC(C)(c1ccc(O)cc1)c1ccc(OCc2cccc(N3CCOCC3)n2)cc1 |  |  |  |  |  | Activity [14]: inactive; Activity [15]: inactive; Activity [16]: Active; Activity [17]: Active |
| CC(C)(c1ccc(OCC(=O)NCCCCCNc2ccc3c(c2)C(=O)N(C2CCC(=O)NC2=O)C3=O)cc1)c1ccc(OCC(O)CCl)cc1 (configuration not stated) | < 10% | < 10% | < 10% | < 10% | > 20 µM |  |
| CC(C)(c1ccc(OCC(=O)NCCCNc2cccc3c2C(=O)N(C2CCC(=O)NC2=O)C3=O)cc1)c1ccc(OCC(O)CCl)cc1 (configuration not stated) | 80.1% | 88.1% | 91.1% | 93.6% | 1.11 µM |  |
| CC(C)(c1ccc(OCC(=O)NCCCNc2ccc3c(c2)C(=O)N(C2CCC(=O)NC2=O)C3=O)cc1)c1ccc(OCC(O)CCl)cc1 (configuration not stated) | < 10% | < 10% | < 10% | < 10% | > 20 µM |  |

Further lines, with some results ahead:

| Activity [1] | Activity [3] | Activity [4] | Activity [5] | Structure (SMILES) | IC50 (CWR22R [2]) | further results |
| --- | --- | --- | --- | --- | --- | --- |
| 74.7% | 90% | < 10% | 21.2% | CC(C)(c1ccc(OCCCCCCNc2ccc3c(c2)C(=O)N(C2CCC(=O)NC2=O)C3=O)cc1)c1ccc(OCC(O)CCl)cc1 (configuration not stated) | 2.17 µM |  |
| 62.1% | < 10% | 22.3% | 69.8% | CC(C)(c1ccc(OCC(=O)NC2CN(c3ccc4c(c3)C(=O)N(C3CCC(=O)NC3=O)C4=O)C2)cc1)c1ccc(OCC(O)CCl)cc1 (configuration not stated) | > 20 µM |  |
| < 10% | < 10% | < 10% | < 10% | CC(C)(c1ccc(OC[C@H](O)CO)cc1)c1ccc(OC[C@H](O)CCl)cc1 | > 20 µM | inhibition (CWR22R [6]): Weak_effect; viability at 0.1 µM (CWR22R [7]): 80.7%; Activity (CWR22R [8]): 13.9%; Activity (CWR22R [9]): 4.6%; Activity (CWR22R [10]): 0.78%; Activity (CWR22R [11]): 50.06%; Activity (CWR22R [12]): 38.87%; Activity (CWR22R [13]): 11.07% |
| 58.7% | 52.1% | 58.3% | 83.1% | CC(C)(c1ccc(OCCCNc2cccc3c2C(=O)N(C2CCC(=O)NC2=O)C3=O)cc1)c1ccc(OCC(O)CCl)cc1 (configuration not stated) | 9.77 µM |  |
| 32.2% | 84.1% | 72.1% | < 10% | CC(C)(c1ccc(OCC(=O)NCCCCCCNc2ccc3c(c2)C(=O)N(C2CCC(=O)NC2=O)C3=O)cc1)c1ccc(OCC(O)CCl)cc1 (configuration not stated) | 11.4 µM |  |
| < 10% | < 10% | < 10% | < 10% | CC(C)(c1ccc(OCC(=O)NCCCCNc2ccc3c(c2)C(=O)N(C2CCC(=O)NC2=O)C3=O)cc1)c1ccc(OCC(O)CCl)cc1 (configuration not stated) | > 20 µM |  |
| 68.8% | 75.2% | 45.2% | 71.4% | CC(C)(c1ccc(OCC(=O)NC2CCN(c3ccc4c(c3)C(=O)N(C3CCC(=O)NC3=O)C4=O)CC2)cc1)c1ccc(OCC(O)CCl)cc1 (configuration not stated) | 3.61 µM |  |
| 55.1% | 88.1% | 81.1% | 23.6% | CC(C)(c1ccc(OCCCCNc2ccc3c(c2)C(=O)N(C2CCC(=O)NC2=O)C3=O)cc1)c1ccc(OCC(O)CCl)cc1 (configuration not stated) | 3.11 µM |  |
| < 10% | < 10% | 69.6% | 79.9% | CC(C)(c1ccc(OCC(=O)N2CCC(CNc3ccc4c(c3)C(=O)N(C3CCC(=O)NC3=O)C4=O)CC2)cc1)c1ccc(OCC(O)CCl)cc1 (configuration not stated) | 15 µM |  |
| 78.1% | < 10% | 31.3% | 89.3% | CC(C)(c1ccc(OCCCCNc2cccc3c2C(=O)N(C2CCC(=O)NC2=O)C3=O)cc1)c1ccc(OCC(O)CCl)cc1 (configuration not stated) | 9.05 µM |  |
| < 10% | 42.5% | 83.5% | 40% | CC(C)(c1ccc(OCC(=O)NCCOCCOCCOCCNc2cccc3c2C(=O)N(C2CCC(=O)NC2=O)C3=O)cc1)c1ccc(OCc2cccc(N3CCOCC3)n2)cc1 (configuration not stated) | 11.2 µM |  |
| 79.5% | 16.7% | < 10% | 93% | CC(C)(c1ccc(OCCCCCCNc2cccc3c2C(=O)N(C2CCC(=O)NC2=O)C3=O)cc1)c1ccc(OCC(O)CCl)cc1 (configuration not stated) | 6.45 µM |  |
